From article PMC11542830, “3-nitropyridine analogues as novel microtubule-targeting agents” (PLOS ONE, 2024)
pIC50: −log10 of the molar value. Like-named read-outs stand apart in the source and are kept apart here.

Legend:
UACC-257 = assay: NCI60 5-dose screen, UACC-257; type: cell-based; conditions: Homo sapiens, melanoma, Fig 1D, read-out: Log10 GI50 (UACC-257) (converted)
Protocol: (§1) The screening methodology used in the NCI60 Cell 5-Doses screen is described in detail at https://dtp.cancer.gov/discovery_development/nci-60/methodology.htm. Briefly, cells are seeded in 96 well plates at an appropriate density and incubated for 1 day. After 1 day, some of the plates are processed to determine a time zero density. To the remaining plates, compounds are added over a 5-log M concentration range (1 log dilutions from 10^-4M to 10^-8M). Plates are incubated for two additional days, then fixed and stained with sulforhodamine B. Growth inhibition is calculated relative to cells without drug treatment and the time zero control. The GI50 is the concentration of a compound that causes 50% growth inhibition, relative to the no drug control.

HOP-92 = assay: NCI60 5-dose screen, HOP-92; type: cell-based; conditions: Homo sapiens, non-small cell lung cancer, Fig 1D, read-out: Log10 GI50 (HOP-92) (converted)
Protocol: as §1

NCI-H226 = assay: NCI60 5-dose screen, NCI-H226; type: cell-based; conditions: Homo sapiens, non-small cell lung cancer, Fig 1D, read-out: Log10 GI50 (NCI-H226) (converted)
Protocol: as §1

CCRF-CEM = assay: NCI60 5-dose screen, CCRF-CEM; type: cell-based; conditions: Homo sapiens, leukemia, Fig 1D, read-out: Log10 GI50 (CCRF-CEM) (converted)
Protocol: as §1

HS 578T = assay: NCI60 5-dose screen, HS 578T; type: cell-based; conditions: Homo sapiens, breast cancer, Fig 1D, read-out: Log10 GI50 (HS 578T) (converted)
Protocol: as §1

[1] = Pharmacokinetics and tissue distribution in mice; type: in vivo; conditions: CD1 mice, IV bolus 20 mg/kg
Protocol: Female CD1 mice were purchased from Harlan (Harlan Netherlands BV) and 7–8 weeks old mice were injected intravenously (IV) with 20 mg/kg 4AZA2891 formulated at 2 mg/ml as described above. […] The plasma, obtained after centrifugation of the heparinized blood for 2 min at 13,000 g, and the harvested tissues, after homogenization with Ultra-Turrax, were stored at-80°C until analysis by LC-MS/MS.
Every plasma and tissue sample was spiked with internal standard followed by the addition of 4 volumes of methanol. The samples were kept for 30 min on ice prior to centrifugation 10 min at 12,000 RPM in order to remove precipitated proteins. The supernatant was analyzed for the presence of 4AZA2891 using LC/MS/MS (Finnigan LCQ advantage Max (ion trap) mass spectrometer with Surveyor HPLC System (Thermo Finnigan)).
As standard for the bioanalysis, 4AZA2891 was diluted stepwise. Each dilution was added to blank control plasma or to blank control tissue homogenate additionally spiked with internal standard, giving rise to standard curves from 5 to 5,000 ng/ml. The lower limit of quantification was 5 to 10 ng/ml depending on the tissues.
Non-compartmental pharmacokinetic analysis was performed on the plasma concentration-time data. PK Solutions 2.0 software (Summit Research Services) was used to calculate the PK parameters.

NCI-H23 = assay: NCI60 5-dose screen, NCI-H23; type: cell-based; conditions: Homo sapiens, non-small cell lung cancer, Fig 1D, read-out: Log10 GI50 (NCI-H23) (converted)
Protocol: as §1

RPMI-8226 = assay: NCI60 5-dose screen, RPMI-8226; type: cell-based; conditions: Homo sapiens, leukemia, Fig 1D, read-out: Log10 GI50 (RPMI-8226) (converted)
Protocol: as §1

EKVX = assay: NCI60 5-dose screen, EKVX; type: cell-based; conditions: Homo sapiens, non-small cell lung cancer, Fig 1D, read-out: Log10 GI50 (EKVX) (converted)
Protocol: as §1

MDA-MB-231/ATCC = assay: NCI60 5-dose screen, MDA-MB-231/ATCC; type: cell-based; conditions: Homo sapiens, breast cancer, Fig 1D, read-out: Log10 GI50 (MDA-MB-231/ATCC) (converted)
Protocol: as §1

Jurkat cells = assay: 3-day MTS cell viability assay, Jurkat; type: cell-based; conditions: Homo sapiens, 72 hours, Fig 1C
Protocol: (§2) All cancer cell lines (HT-29: colorectal adenocarcinoma, HCT-116: colorectal carcinoma, A549: lung epithelial carcinoma, PC3: prostate adenocarcinoma, Jurkat: acute T-cell leukemia, BC-1: primary effusion lymphoma) and the normal human embryonal lung fibroblast cell line MRC-5 were acquired from the American Type Culture Collection (ATCC). All cell lines were cultured as recommended by the suppliers. Culture media were purchased from Gibco (Thermo Fisher Scientific) and supplemented with 10 to 20% fetal bovine serum (HyClone, GE Healthcare Life Sciences) and 20–25 μg/mL gentamicin (Gibco, Thermo Fisher Scientific). […]
(§3) Cell viability in cancer cell lines treated with compound was measured in a 3-day MTS cell proliferation assay using the CellTiter 96 AQueous Non-Radioactive Cell Proliferation Assay reagent (Promega) according to the manufacturer’s instructions. Absorbance was read at 490 nm on a SaFire II microplate reader (Tecan). CC50 values were calculated by fitting the obtained MTS cell viability data in GraphPad Prism using a 4-parameter log–based fit for inhibitors. Apoptosis induction and cell death upon compound treatment in PBMC was measured using the Alexa Fluor 488 Annexin V/Dead Cell Apoptosis Kit (Thermo Fisher Scientific), with readout on a FACSCanto II flow cytometer (BD Biosciences). […] The compounds were evaluated in duplo in two independent experiments.

SF-295 = assay: NCI60 5-dose screen, SF-295; type: cell-based; conditions: Homo sapiens, CNS cancer, Fig 1D, read-out: Log10 GI50 (SF-295) (converted)
Protocol: as §1

MRC-5 cells = assay: 3-day MTS cell viability assay, MRC-5; type: cell-based; conditions: Homo sapiens, MRC5, 72 hours, normal lung fibroblast cells, Fig 1C
Protocol: as §2, §3

SK-MEL-2 = assay: NCI60 5-dose screen, SK-MEL-2; type: cell-based; conditions: Homo sapiens, melanoma, Fig 1D, read-out: Log10 GI50 (SK-MEL-2) (converted)
Protocol: as §1

Compound | GI50 (CCRF-CEM) [nM] | GI50 (HS 578T) [nM] | GI50 (NCI-H23) [nM] | GI50 (RPMI-8226) [nM] | GI50 (MDA-MB-231/ATCC) [nM] | pIC50 (Jurkat cells) | GI50 (SF-295) [nM] | pIC50 (MRC-5 cells) | GI50 (SK-MEL-2) [nM] | other results
Cc1cc(C)cc(Nc2ccc([N+](=O)[O-])c(NCCN3CCOCC3)n2)c1 [Compound 4AZA2891, 6-(3,5-dimethylanilino)-2-(2-morpholinoethylamino)-3-nitropyridine] | 33.1 | 16.6 | 27.5 | 36.3 | 34.7 | 7.70 | < 10 | 4.53 | 34.7 | GI50 (UACC-257): > 100000 nM; GI50 (HOP-92): < 10 nM; GI50 (NCI-H226): 31.6 nM; tissue distribution [1]: distributes readily to all tissues analyzed including the brain; half-life ([1]; female, mouse, different tissues (homogenates), tissues, read-out: elimination half-lives in the different tissues): 18 to 48 min; AUC(0-t) ([1]; female, mouse, plasma, read-out: AUClast in plasma): 1290 ng·h/mL; Kp ([1]; female, mouse, brain, read-out: ratio of brain AUC over plasma AUC): 2.7; Kp ([1]; female, mouse, kidney, read-out: ratio of kidney AUC over plasma AUC): 2.6; half-life ([1]; female, mouse, plasma, read-out: elimination half-life (converted)): 42 min; clearance ([1]; female, mouse, plasma, read-out: systemic clearance (converted)): 257 mL/min/kg; Vd ([1]; female, mouse, plasma, read-out: volume of distribution at steady state): 5.7 L/kg; GI50 (EKVX): 44.7 nM
Cc1ccnc(Nc2ccc([N+](=O)[O-])c(NCCN3CCOCC3)n2)c1 [Compound 4AZA2996, N^6-(4-methylpyridin-2-yl)-N^2-(2-morpholinoethyl)-3-nitropyridine-2,6-diamine] | 26.3 | < 10 | 15.5 | 26.9 | 38 | 7.85 | < 10 | 4.63 | 30.2 | 
